Legend:
[1] = tested on: Mycobacterium tuberculosis Erdman (autoluminescent); assay: total FIC50 (Loewe) at 50% inhibition, three-drug combination (log2); higher = more antagonistic
Protocol: (§1)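 DiaMOND equipotent three-drug combination dose responses (10 doses, 1.5- or 2-fold spacing, centred on IC90) against autoluminescent M. tuberculosis Erdman in 8 in vitro models. Read-out is OD600, or luminescence for the intracellular and dormancy models, normalised to untreated wells. Hill-fit Einf, AUC25 and GRinf are potency metrics; FIC50 and FIC90 are total Loewe fractional inhibitory concentrations as log2 (negative = synergy).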

[2] = tested on: Mycobacterium tuberculosis Erdman (autoluminescent); assay: total FIC90 (Loewe) at 90% inhibition, three-drug combination (log2); higher = more antagonistic
Protocol: as §1

[3] = tested on: Mycobacterium tuberculosis Erdman (autoluminescent); assay: AUC25, normalised area under dose response up to IC25 (three-drug combination) (fraction (0-1)); higher = more potent at low dose
Protocol: as §1

[4] = tested on: Mycobacterium tuberculosis Erdman (autoluminescent); assay: GRinf, maximum normalised growth rate inhibition (three-drug combination) (unitless (-1 to 1)); higher = less effect (negative = killing)
Protocol: as §1

[5] = tested on: Mycobacterium tuberculosis Erdman (autoluminescent); assay: Einf, fitted maximum growth inhibition of three-drug combination (fraction); higher = stronger maximal inhibition
Protocol: as §1

CC[C@@H](CO)NCCN[C@@H](CC)CO [ethambutol] + NC(=O)c1cnccn1 [pyrazinamide] + CO[C@H]1/C=C/O[C@@]2(C)Oc3c(C)c(O)c4c(O)c(c(/C=N/N5CCN(C)CC5)c(O)c4c3C2=O)NC(=O)/C(C)=C\C=C\[C@H](C)[C@H](O)[C@@H](C)[C@@H](O)[C@@H](C)[C@H](OC(C)=O)[C@@H]1C [rifampicin]
Settings	AUC25, [3]	Einf, [5]	GRinf, [4]	total FIC50, [1]	total FIC90, [2]
in vitro model: acidic pH 5.7, time point: constant (~7 days, model-specific)	0.0703	0.91	-0.349	-0.177	–
in vitro model: acidic pH 5.7, time point: terminal (~4-5 doublings, model-specific)	0.0348	0.982	-0.218	0.428	-0.924
in vitro model: intracellular J774, time point: constant = terminal	–	0.966	-0.396	–	-2.06

Settings	AUC25, [3]	Einf, [5]	GRinf, [4]	total FIC50, [1]	total FIC90, [2]
in vitro model: butyrate, time point: constant (~7 days, model-specific)	0.0895	0.919	0.0103	0.151	–
in vitro model: butyrate, time point: terminal (~4-5 doublings, model-specific)	0.0793	0.964	0.024	0.114	-0.38
in vitro model: cholesterol 0.05 mM, time point: constant (~7 days, model-specific)	0.089	0.596	0.0152	–	–
in vitro model: cholesterol 0.05 mM, time point: terminal (~4-5 doublings, model-specific)	0.105	0.954	-0.297	1.25	–
in vitro model: cholesterol-high 0.2 mM, time point: constant (~7 days, model-specific)	0.0452	0.964	-0.34	1.12	–
in vitro model: cholesterol-high 0.2 mM, time point: terminal (~4-5 doublings, model-specific)	0.043	0.995	-0.69	1.15	0.828
in vitro model: dormancy (butyrate + nitrate, low O2), time point: constant (~7 days, model-specific)	0.134	0.906	0.291	-1.12	–
in vitro model: dormancy (butyrate + nitrate, low O2), time point: terminal (~4-5 doublings, model-specific)	0.0829	0.989	-0.155	-0.532	0.414
in vitro model: standard 7H9 glycerol, time point: constant = terminal	0.0436	0.897	0.134	0.0958	–
in vitro model: valerate, time point: constant (~7 days, model-specific)	0.0382	0.854	0.143	0.23	–
in vitro model: valerate, time point: terminal (~4-5 doublings, model-specific)	0.0278	0.92	0.0943	0.205	-0.873

CC[C@@H](CO)NCCN[C@@H](CC)CO [ethambutol] + NNC(=O)c1ccncc1 [isoniazid] + CC(=O)NC[C@H]1CN(c2ccc(N3CCOCC3)c(F)c2)C(=O)O1 [linezolid]
Settings	AUC25, [3]	Einf, [5]	GRinf, [4]	total FIC50, [1]	total FIC90, [2]
in vitro model: acidic pH 5.7, time point: constant (~7 days, model-specific)	0.108	0.831	-0.311	0.672	–
in vitro model: acidic pH 5.7, time point: terminal (~4-5 doublings, model-specific)	0.0511	0.939	-0.218	1.64	0.241
in vitro model: intracellular J774, time point: constant = terminal	–	0.958	-0.189	–	-0.0766

Settings	AUC25, [3]	Einf, [5]	GRinf, [4]	total FIC50, [1]	total FIC90, [2]
in vitro model: butyrate, time point: constant (~7 days, model-specific)	0.101	0.9	0.0696	0.578	–
in vitro model: butyrate, time point: terminal (~4-5 doublings, model-specific)	0.0839	0.943	0.0902	0.593	1.01
in vitro model: cholesterol 0.05 mM, time point: constant (~7 days, model-specific)	0.148	0.693	-0.305	-0.315	–
in vitro model: cholesterol 0.05 mM, time point: terminal (~4-5 doublings, model-specific)	0.166	0.918	-0.286	-1.8	–
in vitro model: cholesterol-high 0.2 mM, time point: constant (~7 days, model-specific)	0.102	0.925	-0.717	0.686	–
in vitro model: cholesterol-high 0.2 mM, time point: terminal (~4-5 doublings, model-specific)	0.121	1	-0.966	0.382	1.42
in vitro model: dormancy (butyrate + nitrate, low O2), time point: constant (~7 days, model-specific)	0.117	0.801	0.434	0.669	–
in vitro model: dormancy (butyrate + nitrate, low O2), time point: terminal (~4-5 doublings, model-specific)	0.1	0.971	-0.188	0.326	0.438
in vitro model: standard 7H9 glycerol, time point: constant = terminal	0.0661	0.911	0.099	0.88	–
in vitro model: valerate, time point: constant (~7 days, model-specific)	0.127	0.91	-0.184	0.573	–
in vitro model: valerate, time point: terminal (~4-5 doublings, model-specific)	0.0732	0.944	-0.0217	0.769	0.881

From the supplement of paper PMC8617591
